This is an account of results in paper PMC4774911, “Biochemical Screening of Five Protein Kinases from Plasmodium falciparum against 14,000 Cell-Active Compounds” (PLoS ONE, 2016).

Where “and” joins values, the source holds several entries; their conditions need not be identical. Equal entries are not always repeated.

Holding throughout (assay): biochemical
Holding throughout (design): endogenous in cells; host or cells: K562 cell extract; species or system K562 (extract); replicate k of n = 2 (each experiment ID is one independent experiment; two experiment IDs per compound)
What all share (conditions): read-out: KDapp

The target in one experiment is T1, MAP3K3 (Homo sapiens, UniProt Q99759).
T1 sequence (Q99759 1-626): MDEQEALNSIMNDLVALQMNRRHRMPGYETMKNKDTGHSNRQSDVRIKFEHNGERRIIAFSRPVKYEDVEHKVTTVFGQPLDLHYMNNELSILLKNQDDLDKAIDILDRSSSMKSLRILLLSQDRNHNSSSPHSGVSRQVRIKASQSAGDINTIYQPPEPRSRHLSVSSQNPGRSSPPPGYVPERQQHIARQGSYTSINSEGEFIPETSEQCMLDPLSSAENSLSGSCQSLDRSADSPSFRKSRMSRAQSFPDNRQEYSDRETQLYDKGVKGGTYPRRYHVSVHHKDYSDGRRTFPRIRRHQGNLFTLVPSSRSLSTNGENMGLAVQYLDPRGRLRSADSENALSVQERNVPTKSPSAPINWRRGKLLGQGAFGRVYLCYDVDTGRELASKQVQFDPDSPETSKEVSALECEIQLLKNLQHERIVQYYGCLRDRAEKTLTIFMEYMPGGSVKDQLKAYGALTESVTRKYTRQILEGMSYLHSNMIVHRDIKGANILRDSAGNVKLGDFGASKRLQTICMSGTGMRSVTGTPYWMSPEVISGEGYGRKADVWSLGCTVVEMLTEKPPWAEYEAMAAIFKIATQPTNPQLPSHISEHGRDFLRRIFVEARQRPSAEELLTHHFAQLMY

The next experiment has as its target T2, ACVR1B (Homo sapiens, UniProt P36896).
T2 sequence (P36896 1-505): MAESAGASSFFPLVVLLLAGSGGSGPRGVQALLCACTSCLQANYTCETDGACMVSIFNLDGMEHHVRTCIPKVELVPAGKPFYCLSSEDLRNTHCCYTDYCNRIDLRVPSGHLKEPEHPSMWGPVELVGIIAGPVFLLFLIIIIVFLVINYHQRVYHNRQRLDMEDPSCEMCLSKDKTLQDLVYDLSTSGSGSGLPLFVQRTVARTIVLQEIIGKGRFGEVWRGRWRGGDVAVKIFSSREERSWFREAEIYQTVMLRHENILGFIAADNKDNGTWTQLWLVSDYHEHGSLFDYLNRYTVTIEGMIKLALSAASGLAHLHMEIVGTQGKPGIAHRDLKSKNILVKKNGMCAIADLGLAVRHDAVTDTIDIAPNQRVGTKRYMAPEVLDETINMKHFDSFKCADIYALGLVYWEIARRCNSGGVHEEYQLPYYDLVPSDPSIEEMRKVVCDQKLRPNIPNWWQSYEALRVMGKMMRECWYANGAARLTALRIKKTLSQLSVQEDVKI

For a further experiment, the target named is MARK2 (Homo sapiens, UniProt Q7KZI7).
The target of another experiment is GSK3A (Homo sapiens, UniProt P49840).
A further experiment has as its target T3, GAK (Homo sapiens, UniProt O14976).
T3 sequence (O14976 1-1311): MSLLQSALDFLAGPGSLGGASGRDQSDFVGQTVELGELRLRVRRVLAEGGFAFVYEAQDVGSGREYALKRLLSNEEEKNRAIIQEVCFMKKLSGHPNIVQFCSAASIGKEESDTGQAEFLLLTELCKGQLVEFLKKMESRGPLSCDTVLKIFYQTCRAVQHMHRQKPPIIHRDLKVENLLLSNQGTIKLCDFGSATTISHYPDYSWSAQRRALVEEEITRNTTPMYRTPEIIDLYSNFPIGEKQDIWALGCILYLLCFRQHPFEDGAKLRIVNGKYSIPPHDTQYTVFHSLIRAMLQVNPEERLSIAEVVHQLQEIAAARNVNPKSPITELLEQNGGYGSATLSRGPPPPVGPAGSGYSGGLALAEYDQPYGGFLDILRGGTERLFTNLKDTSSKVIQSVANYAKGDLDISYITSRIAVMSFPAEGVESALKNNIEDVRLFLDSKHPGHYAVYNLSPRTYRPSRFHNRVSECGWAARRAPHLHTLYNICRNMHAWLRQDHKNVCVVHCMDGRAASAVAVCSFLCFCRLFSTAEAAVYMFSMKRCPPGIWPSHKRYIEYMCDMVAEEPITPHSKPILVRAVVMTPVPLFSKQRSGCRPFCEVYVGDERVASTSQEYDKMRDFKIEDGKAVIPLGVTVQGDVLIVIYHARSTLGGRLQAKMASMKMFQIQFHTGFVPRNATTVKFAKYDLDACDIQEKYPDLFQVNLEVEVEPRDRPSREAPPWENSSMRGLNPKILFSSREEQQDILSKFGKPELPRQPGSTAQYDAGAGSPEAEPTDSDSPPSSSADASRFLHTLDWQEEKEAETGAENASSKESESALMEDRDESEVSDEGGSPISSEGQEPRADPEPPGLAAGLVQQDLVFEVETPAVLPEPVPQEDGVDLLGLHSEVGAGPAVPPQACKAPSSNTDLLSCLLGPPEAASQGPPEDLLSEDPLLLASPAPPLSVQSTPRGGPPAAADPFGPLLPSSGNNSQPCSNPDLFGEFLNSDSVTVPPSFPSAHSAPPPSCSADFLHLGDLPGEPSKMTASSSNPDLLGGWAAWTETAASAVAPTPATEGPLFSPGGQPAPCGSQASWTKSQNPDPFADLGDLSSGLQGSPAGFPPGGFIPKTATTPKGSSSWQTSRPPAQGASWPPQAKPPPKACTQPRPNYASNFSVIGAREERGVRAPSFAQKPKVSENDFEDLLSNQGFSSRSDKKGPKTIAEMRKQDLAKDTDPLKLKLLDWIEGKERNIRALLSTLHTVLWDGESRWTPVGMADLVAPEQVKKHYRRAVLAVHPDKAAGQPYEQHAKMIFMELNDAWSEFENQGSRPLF

Sequence of GSK3A (P49840 whole entry): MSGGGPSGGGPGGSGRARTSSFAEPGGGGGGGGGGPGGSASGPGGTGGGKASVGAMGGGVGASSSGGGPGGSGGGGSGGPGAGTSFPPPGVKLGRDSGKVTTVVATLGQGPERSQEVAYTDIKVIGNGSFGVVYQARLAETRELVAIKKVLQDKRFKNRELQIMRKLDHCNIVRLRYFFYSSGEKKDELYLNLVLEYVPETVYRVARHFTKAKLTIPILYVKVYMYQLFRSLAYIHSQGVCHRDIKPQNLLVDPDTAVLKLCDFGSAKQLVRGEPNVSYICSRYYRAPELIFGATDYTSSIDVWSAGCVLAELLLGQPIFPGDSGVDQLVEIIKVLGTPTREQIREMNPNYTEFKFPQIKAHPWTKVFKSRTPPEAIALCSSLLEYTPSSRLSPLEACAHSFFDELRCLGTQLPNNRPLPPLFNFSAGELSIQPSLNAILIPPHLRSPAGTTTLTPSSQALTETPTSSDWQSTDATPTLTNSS
Sequence of MARK2 (Q7KZI7 whole entry): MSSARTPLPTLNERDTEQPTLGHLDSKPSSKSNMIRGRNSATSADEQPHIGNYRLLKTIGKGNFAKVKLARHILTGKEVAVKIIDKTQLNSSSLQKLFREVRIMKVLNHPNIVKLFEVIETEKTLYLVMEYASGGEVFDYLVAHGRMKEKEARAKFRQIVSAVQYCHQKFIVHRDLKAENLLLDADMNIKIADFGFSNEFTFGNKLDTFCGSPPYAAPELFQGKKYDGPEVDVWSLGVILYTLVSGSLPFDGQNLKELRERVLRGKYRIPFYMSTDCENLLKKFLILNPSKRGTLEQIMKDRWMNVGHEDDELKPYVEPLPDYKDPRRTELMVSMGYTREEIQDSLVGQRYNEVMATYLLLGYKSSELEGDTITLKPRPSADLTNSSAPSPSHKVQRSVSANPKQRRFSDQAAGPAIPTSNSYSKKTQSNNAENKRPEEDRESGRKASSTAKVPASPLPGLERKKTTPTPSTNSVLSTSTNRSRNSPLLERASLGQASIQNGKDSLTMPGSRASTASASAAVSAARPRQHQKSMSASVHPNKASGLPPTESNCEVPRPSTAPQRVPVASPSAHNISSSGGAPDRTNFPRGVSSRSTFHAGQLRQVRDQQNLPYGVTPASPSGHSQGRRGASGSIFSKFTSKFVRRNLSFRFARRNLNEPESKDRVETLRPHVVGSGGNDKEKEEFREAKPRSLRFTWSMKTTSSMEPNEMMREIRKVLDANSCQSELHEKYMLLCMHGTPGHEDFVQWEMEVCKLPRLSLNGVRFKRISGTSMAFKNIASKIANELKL

Take `CN1CCN(c2ccc(Nc3ncc(C#N)c(Nc4ccccc4C(N)=O)n3)cc2)CC1.Cl` [TCMDC-134116]: the Kd on MAP3K3 was 176 nM; on ACVR1B, 1630 nM; on MARK2 it was 121 nM and 115 nM; on GSK3A, 470 nM and 369 nM; on GAK it was 32.3 nM and 39.4 nM.

Consider `Cl.NCC1(c2nc(-c3ccc(Cl)c(O)c3)c(-c3ccncc3)[nH]2)CCCCC1` [TCMDC-141154], for which, at ACVR1B, the Kd came out at 240 nM.

Take `CN(C)CC(O)COc1ccc(Nc2ncc([N+](=O)[O-])c(Nc3ccccc3O)n2)cc1.O=C(O)C(F)(F)F` (stereo not shown) [TCMDC-141399]: the Kd at MAP3K3 was 3400 nM; on MARK2 it was 3510 nM; at GSK3A it was 2250 nM and 2480 nM; on GAK, 591 nM and 907 nM.
